Experimental data reported in patent US20250230138A1, “COMPOUNDS HAVING A T-STRUCTURE FORMED BY AT LEAST FOUR CYCLES FOR USE IN THE TREATMENT OF CANCER AND OTHER INDICATIONS” (TheRas, Inc., priority 2022, published 2025).
Read-outs that look alike come from different tables or passages of the source.

How the values were obtained:
[1] = biological target: Cys242 in human PIK3CA (157-299) (Homo sapiens (Human), UniProt P42336); assay: Covalent modification assay using MALDI-TOF MS; format: biochemical; details: 4 h reaction time point
Procedure, shortened: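 PIK3CA (157-299) at 3.33 μM or 1 μM in 20 mM HEPES, 150 mM NaCl, 2 mM MgCl2, pH 7.3 was incubated with compound (from 10 mM DMSO stocks) in the dark at room temperature for 15 min, 30 min, 2 h or 4 h. Linear-mode MALDI-TOF peak heights gave percent modification.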

[2] = system: pAKT in BT474 cells; assay: Cell-based pAKT HTRF assay in BT474 cells; details: BT474 cells, 4 hr incubation, read-out: pAKT inhibition IC50 in BT474 cells
Procedure, shortened: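 Treatment lasts 4 hr in DMEM/10% FBS at 0.25% DMSO over nine 3-fold dilutions from 3 μM. The lysate is then probed by HTRF.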

[3] = 3.33 μM protein target, 1:7.5 protein to compound ratio (compounds 1-852)
[4] = Homo sapiens, BT-474, Compounds 10-999
[5] = 1 μM protein target, 1:5 protein to compound ratio (compounds 853-1279)

Cys242 in human PIK3CA (157-299), sequence (P42336 157-299): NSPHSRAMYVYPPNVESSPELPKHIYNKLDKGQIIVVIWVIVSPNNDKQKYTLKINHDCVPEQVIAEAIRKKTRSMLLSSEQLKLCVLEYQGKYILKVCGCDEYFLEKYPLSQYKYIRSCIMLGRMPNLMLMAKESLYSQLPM

SMILES	% of modification [1, 3]	IC50 ([2]; Compounds 10-999) [µM]	IC50 [2, 4] [µM]	% of modification [1, 5]	IC50 ([2]; Compounds 1000-1279) [µM]
C=CC(=O)N1CCn2nc(-c3nc(-c4cnn(C)c4)c4ccsc4c3-c3c(F)cc(F)cc3OCCOC)cc2[C@@H]1C [Compound 649]	A (percent of modification of PIK3CA protein ≥75%)	< 0.1	–	–	–
C=CC(=O)N1CCC(CO)(n2cc(-c3nc(-c4ccc5c(c4)CCNC5)c4ccsc4c3-c3ccc(F)cc3OC)cn2)CC1 [Compound 180, 1-[4-[4-[7-(4-fluoro-2-methoxy-phenyl)-4-(1,2,3,4-tetrahydroisoquinolin-6-yl)thieno[3,2-c]pyridin-6-yl]pyrazol-1-yl]-4-(hydroxymethyl)-1-piperidyl]prop-2-en-1-one]	A (percent of modification of PIK3CA protein ≥75%)	–	0.1 to 1	–	–
C=CC(=O)N1Cc2cc(-c3nc(-c4cnn(C)c4)c4ccsc4c3-c3c(F)cc(F)cc3OCCOC)nn2C[C@H]1C [Compound 578]	D (percent of modification <25%)	1 to 3	–	–	–
C=CC(=O)N1CCc2ccc(-c3nc(-c4ccc5c(c4)CCN(C)C5)c4ccsc4c3-c3ccc(F)cc3OCCOC)cc2C1 [Compound 83]	A (percent of modification of PIK3CA protein ≥75%)	< 0.1	–	–	–
C=CC(=O)N1CCc2nc(-c3nc(-c4ccc5c(c4)CNCCC5)c4ccsc4c3-c3ccc(F)cc3OCCOC)sc2C1 [Compound 168]	A (percent of modification of PIK3CA protein ≥75%)	< 0.1	–	–	–
C=CC(=O)N1CCc2ncc(-c3nc(-c4ccc5c(c4)CNC(=O)C54CC4)c4ccsc4c3-c3c(F)cc(F)cc3OCCOC)cc2C1 [Compound 1192]	–	–	–	A (percent of modification of PIK3CA protein ≥75%)	< 0.1
C=CC(=O)N1Cc2cc(-c3nc(-c4cnn(C)c4)c4ccsc4c3-c3c(F)cc(F)cc3OCCO)nn2[C@@H](C)C1 [Compound 567]	A (percent of modification of PIK3CA protein ≥75%)	< 0.1	–	–	–
C=CC(=O)N1CCc2nc(-c3nc(-c4ccc(C(C)(C)N)cc4)c4ccsc4c3-c3c(F)cc(F)cc3OCCOC)sc2C1 [Compound 443]	A (percent of modification of PIK3CA protein ≥75%)	0.1 to 1	–	–	–
C=CC(=O)N1Cc2cc(-c3nc(-c4cncc(C#N)c4)c4ccsc4c3-c3c(F)cc(F)cc3OCCOC)nn2C[C@H]1C [Compound 670]	A (percent of modification of PIK3CA protein ≥75%)	< 0.1	–	–	–
C=CC(=O)N1CCc2ncc(-c3nc(-c4ccc5c(c4)CCNC5)c4ccsc4c3-c3ccc(F)cc3OC)cc2C1 [Compound 86]	A (percent of modification of PIK3CA protein ≥75%)	< 0.1	–	–	–
C=CC(=O)N1CCn2nc(-c3nc(-c4ccc5c(c4)C(=O)NC5)c4ccsc4c3-c3c(F)cc(F)cc3OCCOC)cc2[C@H]1C [Compound 845, 6-((S)-6-((R)-5-acryloyl-4-methyl-4,5,6,7-tetrahydropyrazolo[1,5-a]pyrazin-2-yl)-7-(2,4-difluoro-6-(2-methoxyethoxy)phenyl)thieno[3,2-c]pyridin-4-yl)isoindolin-1-one]	A (percent of modification of PIK3CA protein ≥75%)	–	< 0.1	–	–
C=CC(=O)N1Cc2cc(-c3nc(-c4ccc5c(cnn5C)c4)c4ccsc4c3-c3c(F)cc(F)cc3OC[C@@H](C)O)nn2[C@@H](C)C1 [Compound 609]	A (percent of modification of PIK3CA protein ≥75%)	< 0.1	–	–	–
C=CC(=O)N1CCn2nc(-c3nc(-c4ccc5c(c4)CNC5=O)c4ccsc4c3-c3c(F)cc(F)cc3OC[C@@H](C)O)cc2[C@H]1C [Compound 762]	A (percent of modification of PIK3CA protein ≥75%)	< 0.1	–	–	–
C=CC(=O)N1CCc2nc(-c3nc(-c4ccc5c(c4)CCNC5)c4ccsc4c3-c3ccc(F)cc3OC)sc2C1 [Compound 87, 1-[2-[7-(4-fluoro-2-methoxy-phenyl)-4-(1,2,3,4-tetrahydroisoquinolin-6-yl)thieno[3,2-c]pyridin-6-yl]-6,7-dihydro-4H-thiazolo[5,4-c]pyridin-5-yl]prop-2-en-1-one]	A (percent of modification of PIK3CA protein ≥75%)	–	0.1 to 1	–	–
C=CC(=O)N1CCc2ncc(-c3nc(-c4ccc5c(c4)CNC(=O)C5)c4ccsc4c3-c3c(F)cc(F)cc3OCCOC)cc2C1 [Compound 963]	–	< 0.1	–	A (percent of modification of PIK3CA protein ≥75%)	–
C=CC(=O)N1CCc2nc(-c3nc(-c4cnc(C)s4)c4ccsc4c3-c3c(F)cc(F)cc3OCCOC)sc2C1 [Compound 431]	A (percent of modification of PIK3CA protein ≥75%)	0.1 to 1	–	–	–
C=C(F)C(=O)N1CCn2nc(-c3nc(-c4ccc5c(c4)CNC5=O)c4ccsc4c3-c3ccc(Cl)cc3OC(C)C)cc2C1 [Compound 361]	A (percent of modification of PIK3CA protein ≥75%)	< 0.1	–	–	–
C=CC(=O)N1CCn2nc(-c3nc(-c4cnc(OCCN(C)C)nc4)c4ccsc4c3-c3c(F)cc(F)cc3OCCOC)cc2C1C (stereo not drawn) [Compound 1056]	–	–	–	A (percent of modification of PIK3CA protein ≥75%)	< 0.1
C=C(F)C(=O)N1CCn2nc(-c3nc(-c4cnc5c(c4)CN(C)CC5)c4ccsc4c3-c3c(F)cc(F)cc3OC(C)C)nc2C1 [Compound 310]	A (percent of modification of PIK3CA protein ≥75%)	< 0.1	–	–	–
C=CC(=O)N1CCn2nc(-c3nc(-n4cc(C)cn4)c4ccsc4c3-c3ccc(F)cc3OC(C)C)cc2C1 [Compound 317, 1-[2-[7-(4-fluoro-2-isopropoxy-phenyl)-4-(4-methylpyrazol-1-yl)thieno[3,2-c]pyridin-6-yl]-6,7-dihydro-4H-pyrazolo[1,5-a]pyrazin-5-yl]prop-2-en-1-one]	A (percent of modification of PIK3CA protein ≥75%)	–	< 0.1	–	–
C=C(F)C(=O)N1CCn2nc(-c3nc(-c4ccc5c(c4)CNC5=O)c4ccsc4c3-c3c(F)cc(F)cc3OC(C)C)cc2C1 [Compound 341]	B (50%<percent of modification <75%)	< 0.1	–	–	–
C=CC(=O)N1Cc2cc(-c3nc(-c4cnc5c(c4)CNC(=O)C5)c4ccsc4c3-c3c(F)cc(F)cc3OCCOC)nn2[C@@H](C)C1 [Compound 688]	A (percent of modification of PIK3CA protein ≥75%)	< 0.1	–	–	–
C=CC(=O)N1CCc2ccc(-c3nc(-c4cnc(N(C)C)nc4)c4ccsc4c3-c3c(F)cc(F)cc3OCCOC)cc2C1 [Compound 1068]	–	–	–	D (percent of modification <25%)	> 1
C=CC(=O)N1Cc2cc(-c3nc(-c4cnn(C(C)C)c4)c4ccsc4c3-c3c(F)cc(F)cc3OC[C@@H](C)O)nn2C[C@H]1C [Compound 726]	A (percent of modification of PIK3CA protein ≥75%)	< 0.1	–	–	–
C=CC(=O)N1Cc2cc(-c3nc(-c4cn(C)cn4)c4ccsc4c3-c3c(F)cc(F)cc3OC[C@@H](C)O)nn2C[C@H]1C [Compound 745]	A (percent of modification of PIK3CA protein ≥75%)	< 0.1	–	–	–
C=CC(=O)N1CC(n2cc(-c3nc(-c4ccc(S(=O)(=O)NC)cc4)c4ccsc4c3-c3ccc(F)cc3OC)cn2)C1 [Compound 196]	A (percent of modification of PIK3CA protein ≥75%)	0.1 to 1	–	–	–
C=CC(=O)N1CCc2nc(-c3nc(-c4ccc(N5CCN(C)CC5)nc4)c4ccsc4c3-c3c(F)cc(F)cc3OCCOC)sc2C1 [Compound 976]	–	< 0.1	–	A (percent of modification of PIK3CA protein ≥75%)	–
